These results are taken from patent publication EP0059645A1, “Method and kit for identification of beta-lactamases” (NATIONAL RESEARCH DEVELOPMENT CORPORATION, priority 1981, dated 1982).

For one test, the system named is PSE-3. Put plainly: Competitive assay with nitrocefin (RSAI). The format is biochemical, Ps.aerug. 1920E.
For the next test, the target named is TEM-1 (Escherichia coli, UniProt P62593). Put plainly: Competitive assay with nitrocefin (RSAI). The format is biochemical, E. coli 2136E. Further details: the beta-lactamase has to be extracted from the cells for the purpose of the present invention; made in house; host or cells: E. coli 2136E (plasmid-bearing strain; crude cell extract).
The next test has as its system K1073. The test can be described thus: Competitive assay with nitrocefin (RSAI). It is filed as biochemical, Klebsiella 1073.
Test [1] concerns the target T1, Chromosomal, constitutive beta-lactamase enzyme (Enterobacter cloacae, UniProt P05364).
T1 construct: Normally, therefore, the beta-lactamase has to be extracted from the cells for the purpose of the present invention; endogenous in cells
Put plainly: Competitive assay with nitrocefin (RSAI). The format is biochemical, E. cloacae.

The subject of the next test is HMS-1. The test can be described thus: 6-well visual test with nitrocefin. The following applies: 3 minutes, room temperature.
In a further test the test system is K17. Put plainly: Competitive assay with nitrocefin (RSAI). It is filed as biochemical, Klebsiella 17.
Another test has as its target TEM-2 (Escherichia coli, UniProt P62593, Q37K). The test can be described thus: 6-well visual test with nitrocefin. The conditions noted are these: 3 minutes, room temperature.
The next test addresses SHV-1 (Escherichia coli, UniProt P0AD63). The test can be described thus: 6-well visual test with nitrocefin. The conditions noted are these: 3 minutes, room temperature.
The target in a further test is PSE-1 (Pseudomonas aeruginosa, UniProt Q03170). The test can be described thus: Competitive assay with nitrocefin (RSAI). It is filed as biochemical, Ps.aerug. 1937E. More on the design: Normally, therefore, the beta-lactamase has to be extracted from the cells for the purpose of the present invention; endogenous in cells.
Test [2] has as its system "unknown" (unidentified) beta-lactamase. The test can be described thus: Competitive assay with nitrocefin (RSAI) on an unidentified beta-lactamase. The following applies: extract by the method of Example 6, assay as in Example 1; * = showed irreversible inhibition.
[3] abbreviates: well A: Cefoxitin 20:1 to nitrocefin.
[4] abbreviates: well E: Cefoxitin 200:1 to nitrocefin.

The structures appear in SMILES notation. Marks after values point to notes of the source that are not given here.

Consider `CO[C@@]1(NC(=O)Cc2cccs2)C(=O)N2C(C(=O)O)=C(COC(N)=O)CS[C@@H]21` [Cefoxi-tin, cefoxitin], for which the RSAI with PSE-3 is 11.4; at TEM-1 it was 60*; with K1073 it was 1020; in [1], 0.01; in the test on K17, 1.6; on PSE-1, 20. This compound also returned an RSAI in [2] of 0.008. For the same compound, the “Score in 6-well visual test” value in the test on HMS-1 (setting [3]) was “++”; with HMS-1 (setting [4]), “-”; on TEM-2 (setting [3]), “++”; at TEM-2 (setting [4]) it was “-”; on SHV-1 (setting [3]), “++”; on SHV-1 (setting [4]), “+”.
